Source: patent US20130317045A1, “THIENOPYRIDINE AND THIENOPYRIMIDINE COMPOUNDS AND METHODS OF USE THEREOF” (AMBIT BIOSCIENCES CORPORATION, priority 2010, published 2013)
pIC50, pKd: −log10 of the molar value.

Experiments:
JAK3 = target: T1, JAK3 (Homo sapiens, UniProt P52333); experiment: Competition binding assay, JAK3
T1 construct: made in house
T1 sequence (P52333 1-1124): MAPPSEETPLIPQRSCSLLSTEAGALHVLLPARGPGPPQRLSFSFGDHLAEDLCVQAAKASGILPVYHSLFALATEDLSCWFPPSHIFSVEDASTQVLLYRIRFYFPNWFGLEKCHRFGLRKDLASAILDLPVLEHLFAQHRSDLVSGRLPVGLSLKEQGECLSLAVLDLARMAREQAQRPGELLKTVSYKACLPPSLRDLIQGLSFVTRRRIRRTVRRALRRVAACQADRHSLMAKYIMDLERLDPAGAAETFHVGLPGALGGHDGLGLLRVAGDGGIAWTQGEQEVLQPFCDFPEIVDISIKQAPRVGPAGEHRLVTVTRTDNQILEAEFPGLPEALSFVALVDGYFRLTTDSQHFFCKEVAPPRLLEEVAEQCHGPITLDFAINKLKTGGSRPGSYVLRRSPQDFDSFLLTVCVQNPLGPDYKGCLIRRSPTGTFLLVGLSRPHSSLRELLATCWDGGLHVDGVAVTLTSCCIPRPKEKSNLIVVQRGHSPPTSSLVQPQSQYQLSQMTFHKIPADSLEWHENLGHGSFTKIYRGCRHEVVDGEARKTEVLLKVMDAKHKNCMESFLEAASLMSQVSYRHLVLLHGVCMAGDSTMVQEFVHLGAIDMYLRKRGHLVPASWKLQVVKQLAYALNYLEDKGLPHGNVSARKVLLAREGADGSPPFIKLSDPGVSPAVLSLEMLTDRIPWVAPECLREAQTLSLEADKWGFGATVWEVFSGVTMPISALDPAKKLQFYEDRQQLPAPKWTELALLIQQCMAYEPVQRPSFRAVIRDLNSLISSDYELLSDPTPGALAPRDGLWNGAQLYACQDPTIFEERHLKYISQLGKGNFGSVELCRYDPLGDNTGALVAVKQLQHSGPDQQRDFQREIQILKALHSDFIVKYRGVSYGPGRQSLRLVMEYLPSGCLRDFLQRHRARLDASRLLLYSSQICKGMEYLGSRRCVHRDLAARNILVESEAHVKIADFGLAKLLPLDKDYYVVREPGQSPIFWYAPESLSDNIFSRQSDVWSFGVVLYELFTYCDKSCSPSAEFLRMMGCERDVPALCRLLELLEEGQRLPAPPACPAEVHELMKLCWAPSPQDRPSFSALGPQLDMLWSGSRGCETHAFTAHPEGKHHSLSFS
Source text: (§1) Competition Binding Assay to Determine Binding Constants (Kd) of the Compounds Against JAK Kinases
(§2) Competition binding assays used herein were developed, validated and performed as described in Fabian et al., Nature Biotechnology 2005, 23,329-336. Kinases were produced as fusions to T7 phage (See, Fabian et al. or WO04/015142) or alternatively, the kinases were expressed in HEK-293 cells and subsequently tagged with DNA for PCR detection (See, WO08/005310). For the binding assays, streptavidin-coated magnetic beads were treated with biotinylated affinity ligands for 30 min at rt to generate affinity resins. The liganded beads were blocked with excess biotin and washed with blocking buffer (SeaBlock (Pierce), 1% BSA, 0.05% Tween 20, 1 mM DTT) to remove unbound ligand and to reduce non-specific binding. Binding reactions were assembled by combining kinase, liganded affinity beads, and test compounds in 1× binding buffer (20% SeaBlock, 0.17×PBS, 0.05% Tween 20, 6 mM DTT). Test compounds were prepared as 100× stocks in DMSO and rapidly diluted into the aqueous environment. DMSO was added to control assays lacking a test compound. Primary screen interactions were performed in polypropylene 384-well plates in a final volume of 34 μL, while Kd determinations were performed in polystyrene 96-well plates in a final volume of 135 μL. The assay plates were incubated at room temperature with shaking for 1 hour, long enough for binding reactions to reach equilibrium, and the affinity beads were washed extensively with wash buffer (1× PBS, 0.05% Tween 20) to remove unbound protein. The beads were then resuspended in elution buffer (1× PBS, 0.05% Tween 20, 2 μM non-biotinylated affinity ligand) and incubated at room temperature with shaking for 30 min. The kinase concentration in the eluates was measured by quantitative PCR. Each kinase was tested individually against each compound. Kds were determined using eleven serial threefold dilutions. A selectivity score, which is a quantitative measure of selectivity of a compound against a panel of enzymes, may be calculated for a compound by dividing the number of enzymes for which a compound meets a set criteria, (for example, a binding constant of 100 nM or less), by the total number of enzymes tested.

TYK2 = target: T2, TYK2 (Homo sapiens, UniProt P29597); experiment: Competition binding assay, TYK2
T2 construct: made in house
T2 sequence (P29597 whole entry): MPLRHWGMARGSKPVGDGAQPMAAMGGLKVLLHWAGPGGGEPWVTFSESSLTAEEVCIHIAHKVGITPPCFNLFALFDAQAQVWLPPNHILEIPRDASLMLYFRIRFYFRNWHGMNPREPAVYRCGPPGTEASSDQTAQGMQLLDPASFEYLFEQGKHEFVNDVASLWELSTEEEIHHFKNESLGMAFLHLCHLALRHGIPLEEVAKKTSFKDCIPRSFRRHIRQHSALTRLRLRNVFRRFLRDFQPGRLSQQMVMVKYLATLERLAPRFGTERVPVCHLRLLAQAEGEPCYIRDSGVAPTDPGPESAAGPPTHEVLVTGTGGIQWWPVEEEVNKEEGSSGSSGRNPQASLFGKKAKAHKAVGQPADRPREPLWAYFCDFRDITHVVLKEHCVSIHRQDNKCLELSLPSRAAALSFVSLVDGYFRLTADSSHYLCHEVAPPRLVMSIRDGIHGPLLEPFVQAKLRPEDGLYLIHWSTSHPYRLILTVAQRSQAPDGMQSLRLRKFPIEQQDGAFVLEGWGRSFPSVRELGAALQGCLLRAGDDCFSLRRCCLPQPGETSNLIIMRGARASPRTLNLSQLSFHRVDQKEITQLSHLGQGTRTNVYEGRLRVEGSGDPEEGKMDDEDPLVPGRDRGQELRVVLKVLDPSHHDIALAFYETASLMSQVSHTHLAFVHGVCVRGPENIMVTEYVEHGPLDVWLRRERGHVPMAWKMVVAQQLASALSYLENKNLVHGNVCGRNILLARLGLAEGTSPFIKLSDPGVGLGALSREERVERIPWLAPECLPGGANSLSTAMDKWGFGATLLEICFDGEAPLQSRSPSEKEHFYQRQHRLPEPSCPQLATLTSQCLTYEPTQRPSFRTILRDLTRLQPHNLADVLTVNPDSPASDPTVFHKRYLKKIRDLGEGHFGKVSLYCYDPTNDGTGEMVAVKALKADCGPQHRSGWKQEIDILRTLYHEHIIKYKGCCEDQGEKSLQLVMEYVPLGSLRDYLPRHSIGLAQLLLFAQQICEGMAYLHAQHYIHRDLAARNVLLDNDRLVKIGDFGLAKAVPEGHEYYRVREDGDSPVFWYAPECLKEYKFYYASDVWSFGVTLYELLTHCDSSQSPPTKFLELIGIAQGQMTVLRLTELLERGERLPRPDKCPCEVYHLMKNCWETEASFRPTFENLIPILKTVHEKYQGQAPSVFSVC
Source text: as §1, §2

JAK2 = target: T3, JAK2 (Homo sapiens, UniProt O60674); experiment: Competition binding assay, JAK2
T3 construct: made in house
T3 sequence (O60674 whole entry): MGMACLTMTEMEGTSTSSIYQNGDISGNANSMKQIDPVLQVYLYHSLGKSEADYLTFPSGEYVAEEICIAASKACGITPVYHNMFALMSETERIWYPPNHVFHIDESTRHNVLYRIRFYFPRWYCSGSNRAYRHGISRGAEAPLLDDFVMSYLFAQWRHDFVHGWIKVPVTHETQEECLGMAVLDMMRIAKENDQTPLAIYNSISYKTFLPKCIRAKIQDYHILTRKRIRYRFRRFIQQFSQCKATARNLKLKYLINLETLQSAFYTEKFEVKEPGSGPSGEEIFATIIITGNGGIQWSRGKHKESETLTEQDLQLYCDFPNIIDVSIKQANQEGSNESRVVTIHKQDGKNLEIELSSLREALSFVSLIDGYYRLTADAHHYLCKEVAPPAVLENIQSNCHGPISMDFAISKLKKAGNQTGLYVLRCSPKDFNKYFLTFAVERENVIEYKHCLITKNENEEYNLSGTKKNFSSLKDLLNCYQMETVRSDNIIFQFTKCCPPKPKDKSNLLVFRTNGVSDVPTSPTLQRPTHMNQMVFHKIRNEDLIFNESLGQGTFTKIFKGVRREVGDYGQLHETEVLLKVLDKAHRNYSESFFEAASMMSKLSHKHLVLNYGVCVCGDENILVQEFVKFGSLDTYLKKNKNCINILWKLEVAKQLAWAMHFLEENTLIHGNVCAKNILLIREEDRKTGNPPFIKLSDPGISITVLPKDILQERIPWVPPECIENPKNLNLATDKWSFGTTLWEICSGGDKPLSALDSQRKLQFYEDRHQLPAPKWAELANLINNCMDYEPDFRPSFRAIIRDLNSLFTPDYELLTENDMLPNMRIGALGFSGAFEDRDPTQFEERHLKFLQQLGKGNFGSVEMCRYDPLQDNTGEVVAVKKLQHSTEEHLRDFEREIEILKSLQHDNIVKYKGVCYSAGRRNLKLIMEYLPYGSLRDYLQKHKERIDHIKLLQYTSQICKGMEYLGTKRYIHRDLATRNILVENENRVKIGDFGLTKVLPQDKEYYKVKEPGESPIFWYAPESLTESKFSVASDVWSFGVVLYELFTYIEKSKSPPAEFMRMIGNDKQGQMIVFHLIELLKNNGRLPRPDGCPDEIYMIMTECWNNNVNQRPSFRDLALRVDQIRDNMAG
Source text: as §1, §2

[1] = tested on: GM-CSFR/JAK2/STAT5 pathway in CSTF-1 cells; experiment: CSTF-1 cell-based reporter assay (beta-lactamase, GM-CSF stimulated); set-up: species or system human; details: Homo sapiens; GM-CSF at 2 ng/mL, 4 hours; read-out: Cell Assay: CS TF-1 reporter assay IC50
Experimental: CSTF-1 Cell-Based Reporter Assay
CSTF-1 cells are derived from the human erythroleukemia cell line that is growth dependent on GM-CSF and has an intact GM-CSFR/JAK2/STAT5 pathway. The cell line contains stably integrated beta-lactamase reporter gene under the control of the […] (irf 1) response element recognized by the activated transcription factor STATS. csTF-1 cells (Invitrogen K1219) were washed with assay media (97% OPTIMEM/ 0.5% dialyzed FBS/0.1 mM NEAA/1 mM Na pyr/P/S) and seeded in the same media at 5×10^5 cell/mL in T150 flask. After 16 hour incubation, cells were seeded at 2×10^5 cell/well in 50 μl volume, into Costar, clear bottom, 96-well assay plates. Serial dilutions of compounds were added to the plates with final DMSO concentration at 0.5% and GM-CSF at 2 ng/mL and the plates were then incubated at […] and 5% CO2 for 4 hours. The plates were brought to room temperature before adding Substrate Mixture according to manufacturer's protocol (Invitrogen, Catalog #K1085). The assay plates containing the substrate mixture were incubated in the dark at room temperature for 2 hours. Blue and green fluorescence was measured with excitation at 409 nm and emission at 460 nm (for blue) and excitation at 409 nm and emission at 530 nm (for green) using Spectra Max Gemini EM.

[2] = tested on: distinct kinases tested excluding mutant variants, typically 359 or 386 kinases; experiment: Kinase selectivity score from competition binding panel; details: compound at 10 μM; fraction of kinases with inhibition of 90% or greater
Experimental: as §2

| Compound | pKd (JAK3) | pKd (TYK2) | pKd (JAK2) | pIC50 [1] | S-Score: S(10) at 10 μM [2] |
| --- | --- | --- | --- | --- | --- |
| Cc1cc(Nc2nc(C(=O)c3ccc(F)cc3)nc3sccc23)n[nH]1 [Example 3, (4-fluorophenyl)(4-(5-methyl-1H-pyrazol-3-ylamino)thieno[2,3-d]pyrimidin-2-yl)methanone] | ≥ 8.00 | 7.00 to 8.00 | ≥ 9.00 | ≥ 7.00 | B (0.3 < B ≦ 0.4) |
| Cc1cc(Nc2nc(C(=O)c3ccc(F)cc3)nc3ccsc23)n[nH]1 [Example 5, (4-fluorophenyl)(4-(5-methyl-1H-pyrazol-3-ylamino)thieno[3,2-d]pyrimidin-2-yl)methanone] | ≥ 8.00 | 7.00 to 8.00 | ≥ 9.00 | ≥ 7.00 | A (A ≦ 0.3) |
| Cc1cc(Nc2nc(C(F)(F)c3ccc(F)cc3)nc3ccsc23)n[nH]1 [Example 7, 2-(difluoro(4-fluorophenyl)methyl)-N-(5-methyl-1H-pyrazol-3-yl)thieno[3,2-d]pyrimidin-4-amine] | ≥ 8.00 | ≥ 8.00 | ≥ 9.00 | ≥ 7.00 | C (0.4 < C ≦ 0.5) |
| Fc1ccc(C(F)(F)c2nc(Nc3cc[nH]n3)c3sccc3n2)cc1 [Example 8, 2-(difluoro(4-fluorophenyl)methyl)-N-(1H-pyrazol-3-yl)thieno[3,2-d]pyrimidin-4-amine] | 7.00 to 8.00 | ≥ 8.00 | ≥ 9.00 | ≥ 7.00 | A (A ≦ 0.3) |
| Cc1cc(Nc2nc(C(=O)c3ccc(F)cc3)nc3scc(C)c23)n[nH]1 [Example 10, (4-fluorophenyl)(5-methyl-4-(5-methyl-1H-pyrazol-3-ylamino)thieno[2,3-d]pyrimidin-2-yl)methanone] | < 7.00 | < 7.00 | < 8.00 | < 6.30 | A (A ≦ 0.3) |
| Cc1csc2nc(C(=O)c3ccc(F)cc3)nc(Nc3cc[nH]n3)c12 [Example 12, (4-(1H-pyrazol-3-ylamino)-5-methylthieno[2,3-d]pyrimidin-2-yl)(4-fluorophenyl)methanone] | < 7.00 | < 7.00 | < 8.00 | < 6.30 | A (A ≦ 0.3) |
| Cc1cc(Nc2nc(C(F)(F)c3ccc(F)cc3)nc3sc(C)cc23)n[nH]1 [Example 14, 2-(difluoro(4-fluorophenyl)methyl)-6-methyl-N-(5-methyl-1H-pyrazol-3-yl)thieno[2,3-d]pyrimidin-4-amine] | 7.00 to 8.00 | ≥ 8.00 | ≥ 9.00 | ≥ 7.00 | A (A ≦ 0.3) |
| Cc1cc2c(Nc3cc[nH]n3)nc(C(F)(F)c3ccc(F)cc3)nc2s1 [Example 15, 2-(difluoro(4-fluorophenyl)methyl)-6-methyl-N-(1H-pyrazol-3-yl)thieno[2,3-d]pyrimidin-4-amine] | 7.00 to 8.00 | < 7.00 | 8.00 to 9.00 | 6.30 to 7.00 | A (A ≦ 0.3) |
| COC(c1ccc(F)cc1)c1nc(Nc2cc(C)[nH]n2)c2sccc2n1 (stereo not drawn) [Example 19, 2-((4-fluorophenyl)(methoxy)methyl)-N-(5-methyl-1H-pyrazol-3-yl)thieno[3,2-d]pyrimidin-4-amine] | 7.00 to 8.00 | 7.00 to 8.00 | 8.00 to 9.00 | 6.30 to 7.00 | A (A ≦ 0.3) |
| Cc1cc(Nc2nc(C(=O)c3ccc(F)cc3)nc3cc(C)sc23)n[nH]1 [Example 20, (4-fluorophenyl)(6-methyl-4-(5-methyl-1H-pyrazol-3-ylamino)thieno[3,2-d]pyrimidin-2-yl)methanone] | ≥ 8.00 | 7.00 to 8.00 | ≥ 9.00 | ≥ 7.00 | B (0.3 < B ≦ 0.4) |
| Cc1cc(Nc2nc(C(=O)c3ccc(F)cc3)nc3c(C)csc23)n[nH]1 [Example 22, (4-fluorophenyl)(7-methyl-4-(5-methyl-1H-pyrazol-3-ylamino)thieno[3,2-d]pyrimidin-2-yl)methanone] | < 7.00 | < 7.00 | 8.00 to 9.00 | 6.30 to 7.00 | A (A ≦ 0.3) |
| Cc1cc(Nc2nc(C(O)c3ccc(F)cc3)nc3c(C)csc23)n[nH]1 (stereo not drawn) [Example 23, (4-fluorophenyl)(7-methyl-4-(5-methyl-1H-pyrazol-3-ylamino)thieno[3,2-d]pyrimidin-2-yl)methanol] | 7.00 to 8.00 | ≥ 8.00 | ≥ 9.00 | 6.30 to 7.00 | A (A ≦ 0.3) |
| Cc1cc(Nc2nc(C(=O)c3ccc(F)cc3)nc3cc(C(C)(C)C)sc23)n[nH]1 [Example 26, (6-tert-butyl-4-(5-methyl-1H-pyrazol-3-ylamino)thieno[3,2-d]pyrimidin-2-yl)(4-fluorophenyl) methanone] | < 7.00 | < 7.00 | 8.00 to 9.00 | 6.30 to 7.00 | A (A ≦ 0.3) |
| Cc1cc(Nc2nc(C(O)c3ccc(F)cc3)nc3cc(C(C)(C)C)sc23)n[nH]1 (stereo not drawn) [Example 27, (6-tert-butyl-4-(5-methyl-1H-pyrazol-3-ylamino)thieno[3,2-d]pyrimidin-2-yl)(4-fluorophenyl)methanol] | 7.00 to 8.00 | < 7.00 | ≥ 9.00 | 6.30 to 7.00 | A (A ≦ 0.3) |
| CC(C)(C)c1cc2nc(C(=O)c3ccc(F)cc3)nc(Nc3cc[nH]n3)c2s1 [Example 28, (4-(1H-pyrazol-3-ylamino)-6-tert-butylthieno[3,2-d]pyrimidin-2-yl)(4-fluorophenyl)methanone] | < 7.00 | < 7.00 | 8.00 to 9.00 | 6.30 to 7.00 | A (A ≦ 0.3) |
